Structures are written as SMILES.

For one assay, the target named is Ba/F3 V617F cells (Homo sapiens, UniProt O60674, V617F, cells depend on it). The assay is described as follows: Proliferation assay (Cell Titer-Glo, 72 h) utilizing Ba/F3 V617F cells. The format is cell-based, mouse. To be noted: Ba/F3 V617F cells, proliferation, level of activity given as class symbol, read-out: IC50 (the source's name). On the procedure: Ba/F3 V617F cells are maintained and plated in RPMI with 10% FBS. Plating density for these cells is 1×10^5 cells/mL.
Ba/F3 V617F cells, sequence (O60674 whole entry V617F): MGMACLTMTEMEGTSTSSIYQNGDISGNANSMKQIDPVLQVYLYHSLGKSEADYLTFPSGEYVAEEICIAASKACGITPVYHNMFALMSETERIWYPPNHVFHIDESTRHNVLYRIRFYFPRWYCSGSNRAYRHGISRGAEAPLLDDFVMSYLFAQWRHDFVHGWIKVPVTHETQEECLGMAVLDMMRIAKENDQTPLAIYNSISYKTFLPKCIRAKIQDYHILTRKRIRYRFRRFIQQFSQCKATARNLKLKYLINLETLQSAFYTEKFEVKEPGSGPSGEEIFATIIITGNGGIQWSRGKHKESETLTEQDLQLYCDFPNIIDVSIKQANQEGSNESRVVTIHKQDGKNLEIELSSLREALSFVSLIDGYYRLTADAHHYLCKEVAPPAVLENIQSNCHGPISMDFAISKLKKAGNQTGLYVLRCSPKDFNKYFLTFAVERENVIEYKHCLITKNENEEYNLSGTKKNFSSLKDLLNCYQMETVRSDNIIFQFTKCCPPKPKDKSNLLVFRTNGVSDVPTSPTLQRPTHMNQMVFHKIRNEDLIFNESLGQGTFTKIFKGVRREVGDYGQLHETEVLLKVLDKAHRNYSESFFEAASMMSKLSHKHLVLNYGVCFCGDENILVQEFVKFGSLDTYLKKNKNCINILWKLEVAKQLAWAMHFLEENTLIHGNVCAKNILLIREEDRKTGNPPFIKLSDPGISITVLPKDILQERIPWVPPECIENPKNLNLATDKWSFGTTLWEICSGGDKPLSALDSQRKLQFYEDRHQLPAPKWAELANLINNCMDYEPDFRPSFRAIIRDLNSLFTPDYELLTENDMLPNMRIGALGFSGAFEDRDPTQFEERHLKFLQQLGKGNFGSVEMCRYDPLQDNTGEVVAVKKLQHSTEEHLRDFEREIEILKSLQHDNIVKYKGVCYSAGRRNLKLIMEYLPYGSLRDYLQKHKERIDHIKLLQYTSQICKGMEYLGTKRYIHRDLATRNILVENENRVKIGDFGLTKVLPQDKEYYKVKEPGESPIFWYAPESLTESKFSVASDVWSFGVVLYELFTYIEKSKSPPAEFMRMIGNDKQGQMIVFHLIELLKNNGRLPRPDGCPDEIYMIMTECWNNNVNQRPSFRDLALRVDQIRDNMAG
The cells were resuspended in a corresponding medium at a required cell density (see above). 100μ of cell suspension was added to each well of a flat bottom 96 well white plate. The compound was serially diluted in DMSO from 5 mM in 3-fold dilutions, and then diluted 1:250 in the RPMI 1640 medium containing 5% FBS and pen/strep. 100 μL of resulting 2× compound solution was added per well in duplicate and the cells were allowed to proliferate for 72 hours at 37° C.
Proliferation was measured using Cell Titer-Glo. The substrate was thawed and allowed to come to ambient temperature. After removal of top 100 μL of medium from each well, 100 μL of the premixed Cell Titer-Glo reagent was added to each well. The plates were mixed on an orbital shaker for three minutes to induce lysis and incubated at ambient temperature for an additional five minutes to allow the signal to equilibrate. The Luminescence was read on the Wallac Plate Reader.
The results of the ability of the compounds of the invention to inhibit JAK2 activity, when tested in the above assay utilizing Ba/F3 V617F cells, are shown in the following Tables 2-3 wherein the level of activity (i.e., the IC50) for each compound is indicated in Tables 2-3. The compound numbers in Tables 2-3 refers to the compounds disclosed herein as being prepared by the methods disclosed herein: […]
Take `Cc1cc(Nc2nccc(-c3ccc(N4C[C@@H]5C[C@H]4CO5)nc3)n2)ccc1N1C[C@@H]2C[C@H]1CN2C` [compound 215, 4-(6-((1S,4S)-2-oxa-5-azabicyclo[2.2.1]heptan-5-yl)pyridin-3-yl)-N-(3-methyl-4-((1S,4S)-5-methyl-2,5-diazabicyclo[2.2.1]heptan-2-yl)phenyl)pyrimidin-2-amine]: the GI50 is less than 1000 nM.
On to `Cc1cc(Nc2nccc(-c3ccc(N4CCOCC4)nc3)n2)ccc1N1C[C@@H]2C[C@H]1CN2C` [compound 231, 4-(6-(morpholin-4-yl)pyridin-3-yl)-N-(3-methyl-4-((1S,4S)-5-methyl-2,5-diazabicyclo[2.2.1]heptan-2-yl)phenyl)pyrimidin-2-amine], for which the GI50 was less than 1000 nM.
In the case of `COCCN(C)c1ccc(-c2ccnc(Nc3ccc(N4C[C@@H]5C[C@H]4CO5)c(C)c3)n2)cn1` [compound 220, 4-(6-(2-methoxyethyl)(methyl)aminopyridin-3-yl)-N-(3-methyl-4-((1S,4S)-5-oxa-2-azabicyclo[2.2.1]heptan-2-yl)phenyl)pyrimidin-2-amine], the GI50 was less than 1000 nM.
For the compound `Cc1cc(Nc2nccc(-c3ccc(NCCCN(C)C)nc3)n2)ccc1N1C[C@@H]2C[C@H]1CN2C` [compound 198, 4-(6-(3-dimethylamino)propylaminopyridin-3-yl)-N-(3-methyl-4-((1S,4S)-5-methyl-2,5-diazabicyclo[2.2.1]heptan-2-yl)phenyl)pyrimidin-2-amine], the GI50 was in the range of 1000 to 10000 nM.
With `Cc1cc(Nc2nccc(-c3ccc(N4CCCC(C(N)=O)C4)nc3)n2)ccc1N1C[C@@H]2C[C@H]1CN2C` (stereo partly drawn) [compound 191, 4-(6-(3-(aminocarbonyl)piperidin-1-yl)pyridin-3-yl)-N-(3-methyl-4-((1S,4S)-5-methyl-2,5-diazabicyclo[2.2.1]heptan-2-yl)phenyl)pyrimidin-2-amine], the GI50 fell in the range of 1000 to 10000 nM.
Regarding `Cc1cc(Nc2nccc(-c3ccc4c(c3)CCCC(=O)N4)n2)ccc1N1CCN2C(C1)[C@H]1CC[C@@H]2C1` (stereo partly drawn) [compound 278, 4-(2-oxo-2,3,4,5-tetrahydro-1H-benzo[b]azepin-7-yl)-N-(3-methyl-4-((6R,9S)-6,9-methanooctahydro-1H-pyrido[1,2-a]pyrazin-2-yl)phenyl)pyrimidin-2-amine], the GI50 was less than 1000 nM.
Turning to `Cc1cc(Nc2nccc(-c3cnc4c(c3)OC(C)(C)C(=O)N4)n2)ccc1N1C[C@@H]2C[C@H]1CN2C1CC1` [compound 247, 4-(2,2-dimethyl-3-oxo-3,4-dihydro-2H-pyrido[3,2-b][1,4]oxazin-7-yl)-N-(3-methyl-4-((1S,4S)-5-cyclopropyl-2,5-diazabicyclo[2.2.1]heptan-2-yl)phenyl)pyrimidin-2-amine], the GI50 is less than 1000 nM.
Same read-out and setting: under `Cc1cc(Nc2nccc(-c3ccc(N4CCOCC4)nc3)n2)ccc1N1C[C@@H]2CC[C@H]1C2` [compound 222, 4-(6-(morpholin-4-yl)pyridin-3-yl)-N-(3-methyl-4-((1S,4R)-2-azabicyclo[2.2.1]heptan-2-yl)phenyl)pyrimidin-2-amine] stands less than 1000 nM; under `CCOCCCNc1ccc(-c2ccnc(Nc3ccc(N4CC5(C)CN(C)CC(C)(C4)C5)c(C)c3)n2)cn1` [compound 211, 4-(6-(3-ethoxypropyl)aminopyridin-3-yl)-N-(3-methyl-4-(1,5,7-trimethyl-3,7-diazabicyclo[3.3.1]nonan-3-yl)phenyl)pyrimidin-2-amine], less than 1000 nM; under `CC(C)N1C[C@@H]2C[C@H]1CN2c1ccc(Nc2nccc(-c3ccc(N4CCOCC4)nc3)n2)cc1Cl` [compound 263, 4-(6-(morpholin-4-yl)pyridin-3-yl)-N-(3-chloro-4-((1S,4S)-5-(1-methylethyl)-2,5-diazabicyclo[2.2.1]heptan-2-yl)phenyl)pyrimidin-2-amine], less than 1000 nM.

Still in this assay, the particulars now being: Ba/F3 V617F cells, proliferation, level of activity to inhibit JAK2, read-out: IC50 (the source's name).
As to `CN1C[C@@H]2C[C@H]1CN2c1ccc(Nc2nccc(-c3ccc(NC(=O)NC4CC4)cc3)n2)cc1` [compound 139, 4-(4-(3-cyclopropylureido)phenyl)-N-(4-((1S,4S)-5-methyl-2,5-diazabicyclo[2.2.1]heptan-2-yl)phenyl)pyrimidin-2-amine], the GI50 is less than 1000 nM.
For `CN(C)c1ccc(-c2ccnc(Nc3ccc(N4C[C@@H]5C[C@H]4CN5C)cc3)n2)cn1` [compound 183, 4-(6-(dimethylamino)pyridin-3-yl)-N-(4-((1S,4S)-5-methyl-2,5-diazabicyclo[2.2.1]heptan-2-yl)phenyl)pyrimidin-2-amine], the GI50 is less than 1000 nM.
Turning to `CN1C[C@@H]2C[C@H]1CN2c1ccc(Nc2nccc(-c3cnc4c(c3)OC(C)(C)C(=O)N4)n2)cc1C#N` [compound 53, 4-(2,2-dimethyl-3-oxo-3,4-dihydro-2H-pyrido[3,2-b][1,4]oxazin-7-yl)-N-(3-cyano-4-((1S,4S)-5-methyl-2,5-diazabicyclo[2.2.1]heptan-2-yl)phenyl)pyrimidin-2-amine], the GI50 is less than 1000 nM.
For `Cc1cc(Nc2nccc(-c3cnc4c(c3)OC(C)(C)C(=O)N4)n2)ccc1N1C[C@@H]2C[C@H]1CN2C` [compound 130, 4-(2,2-dimethyl-3-oxo-3,4-dihydro-2H-pyrido[3,2-b][1,4]oxazin-7-yl)-N-(3-methyl-4-((1S,4S)-5-methyl-2,5-diazabicyclo[2.2.1]heptan-2-yl)phenyl)pyrimidin-2-amine], the GI50 is less than 1000 nM.
For the compound `Cc1cc(Nc2nccc(-c3cncc(C#N)c3)n2)ccc1N1C[C@@H]2C[C@H]1CN2C` [compound 114, 4-(5-cyanopyridin-3-yl)-N-(3-methyl-4((1S,4S)-5-methyl-2,5-diazabicyclo[2.2.1]heptan-2-yl)phenyl)pyrimidin-2-amine], the GI50 lay within 1000 to 10000 nM.
`COc1ccc2cc(-c3ccnc(Nc4ccc(N5C[C@@H]6C[C@H]5CN6C)c(C)c4)n3)[nH]c2c1` [compound 105, 4-(6-methoxy-1H-indol-2-yl)-N-(3-methyl-4-((1S,4S)-5-methyl-2,5-diazabicyclo[2.2.1]heptan-2-yl)phenyl)pyrimidin-2-amine]: the GI50 is less than 1000 nM.
With `Cc1cc(Nc2nccc(-c3ccc(N4CCOCC4)nc3)n2)ccc1N1C2CCC1CC2` [compound 110, 4-(6-(morpholin-4-yl)pyridin-3-yl)-N-(3-methyl-4-(7-azabicyclo[2.2.1]heptan-7-yl)phenyl)pyrimidin-2-amine], the GI50 was 1000 to 10000 nM.
Take `Cc1cc(Nc2nccc(-c3ccc(N(C)C)cc3)n2)ccc1N1C[C@@H]2C[C@H]1CN2C` [compound 14, 4-(4-(N,N-dimethylamino)phenyl)-N-(3-methyl-4-((1S,4S)-5-methyl-2,5-diazabicyclo[2.2.1]heptan-2-yl)phenyl)pyrimidin-2-amine]: the GI50 is less than 1000 nM.
Consider `CN1C[C@@H]2C[C@H]1CN2c1ccc(Nc2nccc(-c3ccc(NCCN4CCOCC4)nc3)n2)cc1F` [compound 70, 4-(6-(2-(morpholin-4-yl)ethyl)aminopyridin-3-yl)-N-(3-fluoro-4-((1S,4S)-5-methyl-2,5-diazabicyclo[2.2.1]heptan-2-yl)phenyl)pyrimidin-2-amine], for which the GI50 is less than 1000 nM.
On the same count and under the same terms, under `Cc1cc(Nc2ncc(C)c(-c3ccc(N(C)C)nc3)n2)ccc1N1C[C@@H]2C[C@H]1CN2C` [compound 2, 4-(6-(N,N-dimethylamino)pyridin-3-yl)-5-methyl-N-(3-methyl-4-((1S,4S)-5-methyl-2,5-diazabicyclo[2.2.1]heptan-2-yl)phenyl)pyrimidin-2-amine] stands less than 1000 nM; under `CCC(=O)N1C[C@@H]2C[C@H]1CN2c1ccc(Nc2nccc(-c3ccc(NC(C)=O)nc3)n2)cc1C` [compound 149, 4-(6-(acetamido)pyridin-3-yl)-N-(3-methyl-4-((1S,4S)-5-ethylcarbonyl-2,5-diazabicyclo[2.2.1]heptan-2-yl)phenyl)pyrimidin-2-amine], less than 1000 nM; under `CCN1C[C@@H]2C[C@H]1CN2c1ccc(Nc2nccc(-c3ccc(N(C)C)nc3)n2)cc1C` [compound 24, 4-(6-(dimethylamino)pyridin-3-yl)-N-(3-methyl-4-((1S,4S)-5-ethyl-2,5-diazabicyclo[2.2.1]heptan-2-yl)phenyl)pyrimidin-2-amine], less than 1000 nM.
As to `Cc1cc(-c2ccnc(Nc3ccc(N4C[C@@H]5C[C@H]4CN5C)c(F)c3)n2)cnc1N1CCOCC1` [compound 59, 4-(5-methyl-6-(morpholin-4-yl)pyridin-3-yl)-N-(3-fluoro-4-((1S,4S)-5-methyl-2,5-diazabicyclo[2.2.1]heptan-2-yl)phenyl)pyrimidin-2-amine], the GI50 is less than 1000 nM.

Staying with this assay, now noted: inhibition of JAK2 activity, proliferation of Ba/F3 V617F cells, read-out: IC50 (the source's name).
Take `CN(C)c1nc(-c2ccnc(Nc3ccc(N4C[C@@H]5C[C@H]4CN5C)nc3)n2)cs1` [compound 177, 4-(2-(dimethylamino)thiazol-4-yl)-N-(6-((1S,4S)-5-methyl-2,5-diazabicyclo[2.2.1]heptan-2-yl)pyridin-3-yl)pyrimidin-2-amine]: the GI50 is more than 20000 nM.
Turning to `CN1C[C@@H]2C[C@H]1CN2c1ccc(Nc2nccc(-c3cnc(N4CCOCC4)cn3)n2)cn1` [compound 180, 4-(5-(morpholin-4-yl)pyrazin-2-yl)-N-(6-((1S,4S)-5-methyl-2,5-diazabicyclo[2.2.1]heptan-2-yl)pyridin-3-yl)pyrimidin-2-amine], the GI50 lay within 1000 to 10000 nM.

The record behind these values is patent US9624229B2, “Pyrimidine-2-amine compounds and their use as inhibitors of JAK kinases” (Rigel Pharmaceuticals, Inc., priority 2008, dated 2017).
